Some results are limits rather than exact numbers.

For series [1], the system named is bronchospasms induced by acetylcholine. The series is described as follows: Konzett-Roessler bronchospasm test, acetylcholine-induced. Format: in vivo. The note with it: Cavia porcellus, iv, guinea pigs, i.v., read-out: dose which inhibits 50% of the induced bronchospasms, Acetylcholine. How it is done: (§1) These activities were measured in guinea pigs by the method of H. Konzett and R. […] Anaesthetized and curarized guinea pigs are subjected to artificial ventilation. The endotracheal pressure is recorded. Repeated bronchial spasms are induced by successive and progressive intravenous injections of respectively acetylcholine, histamine and serotonin. The test compounds are also administered intravenously.

The test system of series [2] is mice. The note with it: mouse, in vivo, ip. On the procedure:
(§2) Progressive doses of the test compounds are administered intraperitoneally to groups of three male mice (body weight 18 to 22 g) and the general behaviour of the animals is observed according to known criteria. The reference compounds used are the following:
Furthermore, in this test, the toxicity of the compounds according to the present invention appears to be very low. This toxicity, determined by intraperitoneal administration in mice (dose which brings about the death of two animals out of three), is given in the following Table: […]

Series [3] has as its system mice. Put plainly: General behaviour of mice (Irwin's test), tranquilization. In kind it is in vivo. The note with it: male mice, intraperitoneal. How it is done: The behaviour is studied by means of Irwin's test (see S. Irwin, "General philosophy and methodology of screening: a multidimensional approach"; Gordon Research Conference on Medicinal Chemistry, Aug. 3-7, 1959, at Colby Junior College, New London).
as §2
The following Table gives the doses (in mg/kg) which induce the first manifestations of tranquilization in the animals: […]

Series [4] deals with bronchospasms induced by serotonin. Put plainly: Konzett-Roessler bronchospasm test, serotonin-induced. In kind it is in vivo. The note with it: Cavia porcellus, iv, guinea pigs, i.v., read-out: dose which inhibits 50% of the induced bronchospasms, Serotonin. How it is done: as §1
Series [5] concerns passive cutaneous anaphylaxis. Put plainly: passive cutaneous anaphylaxis test (PCA), antiallergic activity. In kind it is in vivo. The note with it: rats; for ED50: Rattus norvegicus, 0.25 h, read-out: ID 50 per os (reduction of 50% of the surface area of the colored spot). How it is done:
This activity is determined in rats by means of the passive cutaneous anaphylaxis test (PCA) (see J. Goose and A. M. J. N. Blair, Immunology,16,(1969),749-760; and U. Martin and D. Roemer, Arzneimittel-Forschung,28,(5), (1978),770-782).
Female rats are used, the sides of which have been partly shaved. Into the zone thus shaved there is injected intradermally, for passive sensitization of the animals, 0.05 ml of IGE antiovalbumin serum at a dilution such that, at the time of the PCA test, a distinct spot with a surface area of about 100 mm^2 appears at the point of injection.
72 Hours after the injection, 0.25 ml of a solution of allergen containing a coloring agent (5 mg of ovalbumin and 6 mg Evans Blue in 0.25 ml of a 0.9% aqueous solution of sodium chloride) is administered intravenously. At the point of intradermal injection, there appears a distinct blue spot, the surface of which is measured.
In order to test the activity of the compound according to the present invention, the procedure is carried out in the same manner; however:
the test compound is administered orally 72 hours after injection of the serum;
15 minutes after this administration, 0.25 ml of the solution of the allergen is injected intravenously;
30 minutes after the administration of the allergen, the surface of the blue spot is measured.
The following Table gives the immunological doses (ID 50 in μmol/kg) which bring about, on average of the total number of animals submitted to the test, a reduction of 50% of the surface area of the colored spot.

Series [6] deals with bronchospasms induced by histamine. Put plainly: Konzett-Roessler bronchospasm test, histamine-induced (antihistaminic activity). Format: in vivo. The note with it: Cavia porcellus, iv; guinea pigs, i.v., histamine-induced; read-out: dose which inhibits 50% of the induced bronchospasms, Histamine. On the procedure:
as §1

[7] abbreviates: oral, allergen i.v. 15 minutes after administration.

`Cl.O=C(O)COCCN1CCC(=C(c2ccccc2)c2ccccc2Cl)CC1` [compound K, 2-[2-[4-[(2-chlorophenyl)phenylmethylene]-1-piperidinyl]ethoxy]-acetic acid hydrochloride]: the ED50 worked out at 39.5 mg/kg in series [1], 0.43 mg/kg in series [4], 100 µmol/kg in series [5] (setting [7]) and 0.104 mg/kg in series [6]. In series [2], the “Toxicity (dose which brings about the death of two animals out of three)” value (from here on “Toxicity”) is 422 mg/kg. Also, in series [3], the “"Tranquilizing" dose (first manifestations of tranquilization)” value (from here on “"Tranquilizing" dose”) is recorded as 126 mg/kg.
For the compound `OCCOCCN1CCN(C(c2ccccc2)c2ccc(Cl)cc2)CC1` (stereo not drawn) [Hydroxyzine, 1-(p-chloro-alpha-phenylbenzyl)-4-(2-hydroxyethoxyethyl)piperazine, reference compound], in series [3], the “"Tranquilizing" dose” value was found to be 27 mg/kg.
For the compound `COc1ccc(C(=C2CCN(CCOCC(N)=O)CC2)c2ccccc2)cc1.Cl` [compound H, 2-[2-[4-[(4-methoxyphenyl)phenylmethylene]-1-piperidinyl]ethoxy]-acetamide hydrochloride], the ED50 was > 41.6 mg/kg in series [1], 0.18 mg/kg in series [4], 31.4 µmol/kg in series [5] (setting [7]) and 0.026 mg/kg in series [6]. For the same compound, the “Toxicity” value in series [2] amounted to 416 mg/kg.
Consider `Cl.O=C(COCCOCCN1CCC(=C(c2ccccc2)c2ccccc2)CC1)Nc1ccccc1` [compound N, 2-[2-[2-[4-(diphenylmethylene)-1-piperidinyl]ethoxy]ethoxy]-N-phenylacetamide hydrochloride], for which the ED50 in series [1] was 1.35 mg/kg; in series [4] it was 0.086 mg/kg; in series [5] (setting [7]), 15.2 µmol/kg; in series [6], 0.192 mg/kg.
With `Cl.NC(=O)COCCN1CCC(=C(c2ccccc2)c2ccc(Cl)cc2)CC1` [compound D, 2-[2-[4-[(4-chlorophenyl)phenylmethylene]-1-piperidinyl]ethoxy]-acetamide hydrochloride], in series [2], the “Toxicity” value was 126 mg/kg. Further, the ED50 in series [5] (setting [7]) was determined as 67.4 µmol/kg.
Turning to `O=C1Nc2ccc(Cl)cc2C(c2ccccc2)=NC1O` (stereo not drawn) [Oxazepam, 7-chloro-1,3-dihydro-3-hydroxy-5-phenyl-2H-1,4-benzodiazepin-2-one, reference compound], the “"Tranquilizing" dose” value in series [3] came to 2.6 mg/kg.
For `NC(=O)COCCOCCN1CCC(=C(c2ccccc2)c2ccc(Cl)cc2)CC1` [compound E, 2-[2-[2-[4-[(4-chlorophenyl)phenylmethylene]-1-piperidinyl]ethoxy]ethoxy]-acetamide], the ED50 was > 4.29 mg/kg in series [1], 0.085 mg/kg in series [4], 34 µmol/kg in series [5] (setting [7]) and 0.348 mg/kg in series [6]. The “Toxicity” value in series [2] is 128 mg/kg.
With `O=C(O)c1cc(=O)c2c(OCC(O)COc3cccc4oc(C(=O)O)cc(=O)c34)cccc2o1` [sodium cromoglycate, reference compound], the “ID 50 per os (reduction of 50% of the surface area of the colored spot)” value in series [5] (setting [7]) is “inactive”. For the same compound, in series [5] (per os), the “activity when administered per os (in words)” value was “inactive”.
Consider `Cl.NC(=O)COCCOCCN1CCC(=C(c2ccccc2)c2ccccc2)CC1` [compound C, 2-[2-[2-[4-(diphenylmethylene)-1-piperidinyl]ethoxy]ethoxy]-acetamide hydrochloride], for which the ED50 in series [1] worked out at 0.47 mg/kg; in series [4], 0.009 mg/kg; in series [5] (setting [7]), 76 µmol/kg; in series [6] it was 0.031 mg/kg. In addition, in series [2], the “Toxicity” value turned out to be 258 mg/kg.
Regarding `NC(=O)COCCN1CCC(=C(c2ccccc2)c2ccc(F)cc2)CC1` [compound G, 2-[2-[4-[(4-fluorophenyl)phenylmethylene]-1-piperidinyl]ethoxy]-acetamide], the ED50 was > 11.8 mg/kg in series [1], 0.023 mg/kg in series [4], 5.5 µmol/kg in series [5] (setting [7]) and 0.093 mg/kg in series [6]. For the same compound, in series [2], the “Toxicity” value is reported as 368 mg/kg.

These data come from patent US4443460A, “2-[4-(Diphenylmethylene)-1-piperidinyl]-acetic acids and their amides” (UCB, Societe Anonyme, priority 1980, dated 1984).
